Assay results from paper PMC9743128, “Phenotype-based screening rediscovered benzopyran-embedded microtubule inhibitors as anti-neuroinflammatory agents by modulating the tubulin–p65 interaction” (Experimental & Molecular Medicine, 2022).
Read-outs that look alike come from different tables or passages of the source.

Tests used:
[1] = system: LPS-mediated NO release in BV-2 microglial cells; assay: Griess assay: cellular NO release after LPS treatment; type: cell-based, murine; settings: for IC50: 100 ng/mL LPS, 24 h
Description: Cellular secretion of nitric oxide (NO) was quantified with the Griess assay. BV-2 cells were seeded on a clear flat bottom TC-treated 96-well plate (Corning; #3598) and sealed with breathable sealing tape (Axygen; BF-400-S). After 18 h, BV-2 cells were treated with compounds in the absence or presence of 100 ng/mL LPS (Sigma; L4391). After 24 h, 50 μL of the cell culture media was mixed with the same volume of Griess reagent {0.1% naphthylethylenediamine dihydrochloride (Sigma; #222488) and 1% sulfanilamide (Sigma; S9251) in 4% phosphoric acid (Daejung; #6532-4405)}. Absorbance at 550 nm was measured using a microplate reader (BioTek; Synergy). Sodium nitrite (Alfa Aesar; A18668) was used for standard curve generation.
Microglia are tissue-resident macrophages involved in CNS immunosurveillance[3],[39]. Microglial activation induces proinflammatory cytokine tumor necrosis factor α (TNF-α) expression, resulting in neural toxicity[5],[6]. Therefore, the inhibition of microglial activation is critical for regulating neuroinflammation. To discover anti-neuroinflammatory NCEs, we monitored the cellular release of nitric oxide (NO) in response to lipopolysaccharide (LPS) treatment as a mimic of pathogenic activation of innate immune systems upon compound treatment in BV-2 cells using the Griess assay.

BV-2 cells = assay: Cell viability assay (EZ-Cytox); settings: 10 μM
[2] = system: p65 nuclear translocation in J774A.1 and RAW264.7 cells; assay: p65 nuclear translocation by immunofluorescence staining; type: cell-based, murine; settings: 10 μM for 1 h, then LPS; LPS alone 80%, basal 40%
Description: To monitor p65 translocation, J774A.1 cells were treated with compounds for 1 h, followed by LPS (100 ng/ml) treatment for 30 min. The cells were fixed with 4% paraformaldehyde (Sigma; #158127) in PBS (w/v) for 30 min at room temperature. After washing with 1× PBS (Welgene; ML008-02) three times, the fixed cells were permeabilized with PBS containing 0.1% Triton X-100 for 10 min. The cells were washed with 1× PBS three times and then blocked with 4% bovine serum albumin (MP Biomedicals; #0216006980) in PBS (w/v) for 1 h. The cells were incubated with mouse anti-p65 antibody (Santa Cruz; sc-8008, 1:200 diluted in 1% BSA–PBS) at 4 °C overnight and washed with PBS three times. FITC-labeled goat anti-mouse IgG antibody (Abcam; ab6785, 1:200 diluted in 1% BSA–PBS) was added to the sample and incubated for 1 h at room temperature. The remaining antibodies were finally washed three times with PBS. Nuclei were stained with Hoechst 33342 (Thermo; #62249). The cellular p65 proteins were imaged by fluorescence microscopy (GE Healthcare; Delta Vision) and quantified by the line profiling method.
During activation of the NF-κB signaling pathway, IκB is phosphorylated and degraded by proteasomes. The released p65 from IκB is translocated to the nucleus, inducing the transcription of target genes for inflammatory responses. Therefore, we monitored the translocation of p65 upon SB26019 treatment in J774A.1 and RAW264.7 murine macrophage cells stained with fluorescently labeled antibodies. […]

[3] = system: TNF-α secretion in BV-2 cells; assay: TNF-α ELISA of culture medium after LPS; type: cell-based, murine; settings: 10 μM
Description: BV-2 and RAW264.7 cells were treated with compounds in the absence or presence of LPS (100 ng/ml). After 24 h, TNF-α levels in the culture medium were measured using a TNF-α ELISA kit (R&D Systems; DY410) according to the manufacturer’s protocol. Briefly, capture antibodies were coated on 96-well Maxisorp Nunc-Immuno plates (Thermo; #439454) for 1 h and washed with PBS containing 0.05% Tween-20 (PBST) three times. The plates were blocked with 1% BSA-PBS for 1 h and washed with PBST three times. Culture medium was added to the 96-well plate for 1 h and washed with PBST three times. Biotinylated detection antibody was added to the 96-well plate for 1 h and washed with PBST three times. Streptavidin–horseradish peroxidase (HRP) was added to the plate for 20 min and washed with PBST three times. After 20 min of incubation with TMB substrate (Thermo; #002023), TMB oxidation was stopped by adding 2 N H2SO4. The absorbance at 450 nm, 540 nm, and 570 nm was measured using a microplate reader (BioTek; Synergy). The following formula was used to calculate the net signal: OD450nm–(OD540nm + OD570nm)/2.
Fig. 2 SB26019 has anti-inflammatory activity via the accumulation of tubulin monomers. SB26019 (10 μM for 6 h) regulated the mRNA levels (a) and protein levels (b) of downstream genes of NF-κB in BV-2 murine microglial cells more efficiently than the other known tubulin modulators (n = 3). c Both tubulin modulators (10 μM for 6 h) and transient Flag-tagged α-tubulin overexpression increased the total amount of tubulin monomers. d Quantification of the amount of tubulin polymer vs. monomer in (c). Tubulin modulators (10 μM for 6 h) and transient Flag-tagged α-tubulin overexpression proportionally regulated the NF-κB signaling pathway at the mRNA (e) and protein levels f in RAW264.7 murine macrophage cells (n = 3). Data are presented as the mean ± SD (ns, not significant, p > 0.05; *p < 0.05; **p < 0.01; ***p < 0.001).

tubulin [4] = target: T1, tubulin (Sus scrofa, UniProt P02550+P02554); assay: Tubulin polymerization assay; type: biochemical; settings: 1 μM compound
T1 construct: purchased Cytoskeleton BK006P
Description: The tubulin polymerization inhibition efficacy of the compounds was measured by a tubulin polymerization assay kit (Cytoskeleton; BK006P) according to the manufacturer’s manual. Absorbance at 340 nm was measured to observe the formation of tubulin polymers using a microplate reader (Biotek; Synergy).
Supplementary Fig. 4. Tubulin polymerization inhibition by compounds 1–13 (1 μM). In the presence or absence of compounds, tubulin was incubated to polymerize at room temperature. Absorbance at 340 nm was measured in a time-dependent manner for monitoring the rate of tubulin polymerization.
Supplementary Table 2. Tubulin polymerization inhibition of the focused library. Tubulin was incubated with each compound (1 μM) and the tubulin polymerization inhibition was monitored. Vmax was calculated from tubulin polymer generation curve data of Supplementary Fig. 3.

[5] = Cell viability assay (EZ-Cytox); settings: mouse, BV-2 microglial cells
tubulin [6] = target: T2, tubulin (Homo sapiens, UniProt P07437+P68363); assay: Cellular thermal shift assay (CETSA); type: cell-based
T2 construct: endogenous in cells

in vitro = settings: mouse
[7] = Mus musculus, BV-2 cells, LPS, read-out: % NO inh. at 10 μM

T1 sequence (P02554 whole entry): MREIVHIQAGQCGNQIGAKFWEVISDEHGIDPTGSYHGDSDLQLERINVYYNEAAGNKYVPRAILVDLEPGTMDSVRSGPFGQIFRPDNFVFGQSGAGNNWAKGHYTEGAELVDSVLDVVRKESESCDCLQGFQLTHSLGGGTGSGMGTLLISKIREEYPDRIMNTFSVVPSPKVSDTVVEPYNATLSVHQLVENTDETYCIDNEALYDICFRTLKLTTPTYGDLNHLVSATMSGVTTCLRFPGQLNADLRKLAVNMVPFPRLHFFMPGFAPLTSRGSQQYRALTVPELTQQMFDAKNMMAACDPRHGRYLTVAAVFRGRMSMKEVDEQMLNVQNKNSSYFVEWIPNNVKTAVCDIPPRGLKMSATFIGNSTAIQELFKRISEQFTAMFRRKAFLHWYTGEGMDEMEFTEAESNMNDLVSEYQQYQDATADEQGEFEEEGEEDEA
T1 sequence (P02550 whole entry): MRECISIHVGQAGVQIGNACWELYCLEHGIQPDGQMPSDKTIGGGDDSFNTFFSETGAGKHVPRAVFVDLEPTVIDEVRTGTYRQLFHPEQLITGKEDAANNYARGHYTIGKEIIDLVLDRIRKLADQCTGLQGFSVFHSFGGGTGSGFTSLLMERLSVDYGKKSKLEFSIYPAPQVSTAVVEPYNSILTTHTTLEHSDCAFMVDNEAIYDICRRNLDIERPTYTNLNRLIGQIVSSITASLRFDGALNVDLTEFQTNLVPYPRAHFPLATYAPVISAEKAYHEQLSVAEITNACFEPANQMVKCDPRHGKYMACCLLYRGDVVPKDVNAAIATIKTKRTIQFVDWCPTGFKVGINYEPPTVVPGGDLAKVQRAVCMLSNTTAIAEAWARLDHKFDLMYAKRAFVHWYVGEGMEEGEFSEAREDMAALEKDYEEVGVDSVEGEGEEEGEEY
T2 sequence (P07437 whole entry): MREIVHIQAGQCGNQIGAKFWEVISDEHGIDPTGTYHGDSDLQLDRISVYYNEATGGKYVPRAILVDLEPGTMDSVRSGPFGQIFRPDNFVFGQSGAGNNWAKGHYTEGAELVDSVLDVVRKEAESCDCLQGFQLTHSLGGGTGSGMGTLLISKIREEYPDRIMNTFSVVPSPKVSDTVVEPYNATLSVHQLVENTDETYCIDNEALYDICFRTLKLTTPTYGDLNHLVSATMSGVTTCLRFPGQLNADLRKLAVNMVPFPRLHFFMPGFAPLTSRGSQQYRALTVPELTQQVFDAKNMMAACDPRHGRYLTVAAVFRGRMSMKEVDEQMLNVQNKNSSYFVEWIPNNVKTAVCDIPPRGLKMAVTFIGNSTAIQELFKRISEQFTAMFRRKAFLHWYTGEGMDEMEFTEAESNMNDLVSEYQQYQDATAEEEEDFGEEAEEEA
T2 sequence (P68363 whole entry): as the sequence (P02550 whole entry) above, with S136L, G232S, A265I, T340S, E358Q counted along it

IC50 ([1]; BV-2 cells) | Structure (SMILES) | % NO inh. at 10 μM ([1]; BV-2 cells, LPS) | % Viab. at 10 μM (BV-2 cells) | other results
5.01 µM | COc1ccc2c(c1O)OC(C)(C)C=C2c1cccc2cccnc12 [Compound 7] | 98.0% | 101.5% | 
5.09 µM | COc1ccccc1C1=CC(C)(C)Oc2c1ccc(OC)c2O [Compound 6] | 87.1% | 113.8% | 
 | COC(=O)Nc1nc2ccc(C(=O)c3cccs3)cc2[nH]1 [Nocodazole, reference compound] |  |  | inhibition at 10 µM [1, 7]: 54.9%; IC50 ([1]; Mus musculus, BV-2 cells): 13.4 µM; p65 nuclear translocation in the presence of LPS [2]: < 60%; TNF-α levels compared to that of the DMSO control [3]: < 50%; Vmax of microtubule polymerization compared to DMSO control (tubulin [4]): reduced Vmax; viability at 10 µM [5]: 93.8%
 | COc1ccc2c(c1O)OC(C)(C)C=C2c1ccc(Cl)cc1C [Compound 1] |  |  | inhibition at 10 µM [1, 7]: 69.4%; inhibition at 10 µM ([1]; Mus musculus, BV-2 microglial cells, read-out: LPS-mediated NO release inhibited down to): 70%; IC50 ([1]; Mus musculus, BV-2 cells): 5.22 µM; Thermal shift of tubulin in CETSA (tubulin [6]): slight thermal sensitization; viability at 10 µM [5]: 102%
13.1 µM | COc1ccc2c(c1O)OC(C)(C)C=C2c1cccc2c1Sc1ccccc1S2 [Compound 10] | 36.8% | 102.1% | 
5.94 µM | COc1ccc2c(c1O)OC(C)(C)C=C2c1ccc(F)cc1C [Compound 2] | 65.3% | 105.3% | 
7.19 µM | COc1ccc2c(c1O)OC(C)(C)C=C2c1ccccc1C [Compound 4] | 73.3% | 106.1% | 
22.3 µM | COc1ccc2c(c1O)OC(C)(C)C=C2c1ccc(F)cc1 [Compound 3] | 9.9% | 88.0% | 
1 µM | COc1ccc2c(c1O)OC(C)(C)C=C2c1cccc2c1sc1ccccc12 [Compound 9] | 90.0% | 103.6% | 
9.89 µM | COc1ccc2c(c1O)OC(C)(C)C=C2c1cc(C)ccc1C [Compound 5] | 46.9% | 99.7% | 
 | COc1cc2c(c(OC)c1OC)-c1ccc(OC)c(=O)cc1[C@@H](NC(C)=O)CC2 [Colchicine] |  |  | inhibition at 10 µM [1, 7]: 51.8%; viability at 10 µM (in vitro): 114%; p65 nuclear translocation in the presence of LPS [2]: < 60%; TNF-α levels compared to that of the DMSO control [3]: < 50%

Structure (SMILES) | IC50 ([1]; BV-2 cells) | % NO inh. at 10 μM ([1]; BV-2 cells, LPS) | % Viab. at 10 μM (BV-2 cells) | other results
COc1ccc2c(c1O)OC(C)(C)C=C2c1cccc(-c2ccccc2)c1 [Compound 11] | 6.71 µM | 61.6% | 106.1% | 
CCOC(=O)CCC1(C)C=C(c2ccc(Cl)cc2C)c2ccc(OC)c(O)c2O1 (stereo not drawn) [Compound 12] | 7.45 µM | 72.3% | 105.6% | 
CCOC(=O)CCC1(C)C=C(c2cccc3c2oc2ccccc23)c2ccc(OC)c(O)c2O1 (stereo not drawn) [Compound 13] | 1.79 µM | 101.2% | 111.4% | 
